Values quoted from earlier work, collected in patent US10213411B2, “Use of prodrugs of fumarates in treating heart failure diseases” (priority 2015, dated 2019).
Where a name gives a salt, the structure may show the parent alone.

Assays:
[1] = system: central nervous system (CNS) inflammation; conditions: preclinical
[2] = system: central nervous system (CNS) inflammation; conditions: preclinical; remark: listed apart in the source
[3] = system: astrogliosis and microglial activations
[4] = healthy subjects, compared by MMF plasma levels

Compound | CNS inflammation in rat EAE [1] | CNS inflammation in murine EAE [2] | astrogliosis and microglial activations associated with EAE [3] | dose comparable to 240 mg DMF (Tecfidera) by plasma levels of MMF [4] [mg]
COC(=O)/C=C/C(=O)OC [DMF, Dimethyl fumarate] | inhibit central nervous system (CNS) inflammation | inhibit central nervous system (CNS) inflammation | inhibit astrogliosis and microglial activations | 
COC(=O)/C=C/C(=O)OCCN1C(=O)CCC1=O [ALKS 8700] |  |  |  | 420
